The structures appear in SMILES notation.

For the first test, the system named is HCT 116 cells. Description: CellTiter-Glo assay in HCT 116 cells (antiproliferative activity). The conditions noted are these: Homo sapiens, HCT-116, 120 h, CellTiter-Glo cell viability, HCT 116 human colon carcinoma, 5 days (120 h) incubation. It is filed as cell-based. From the text: Antiproliferative Activity:
CellTiter-Glo™ Assay in HCT 116 Cells:
The CellTiter-Glo™ Luminescent Cell Viability Assay (Promega) is a homogeneous method of determining the number of viable cells in culture based on quantitation of the ATP present, which signals the presence of metabolically active cells.
HCT 116 cells (human colon carcinoma, ATCC-No. CCl-247) were cultivated in RPMI 1640 medium with GlutaMAX• I (Invitrogen, Cat-No. 61870-010), 5% Fetal Calf Serum (FCS, Sigma Cat-No. F4135 (FBS)); 100 Units/ml penicillin/100 μg/ml streptomycin (=Pen/Strep from Invitrogen Cat. No. 15140). For the assay the cells were seeded in 384 well plates, 1000 cells per well, in the same medium. The next day the test compounds were added in various concentrations ranging from 30 μM to 0.0015 μM (10 concentrations, 1:3 diluted). After 5 days the CellTiter-Glo™ assay was done according to the instructions of the manufacturer (CellTiter-Glo™ Luminescent Cell Viability Assay, from Promega). In brief: the cell-plate was equilibrated to room temperature for approximately 30 minutes and than the CellTiter-Glo™ reagent was added. The contents were carefully mixed for 15 minutes to induce cell lysis. After 45 minutes the luminescent signal was measured in Victor 2, (scanning multiwell spectrophotometer, Wallac).
1st. Day: • Medium: RPMI 1640 with GlutaMAX™ I (Invitrogen, Cat-Nr. 61870), 5% FCS (Sigma Cat.-No. F4135), Pen/Strep (Invitrogen, Cat No. 15140). • HCT116 (ATCC-No. CC1-247): 1000 cells in 60 μl per well of 384 well plate (Greiner 781098, μClear-plate white) • After seeding incubate plates 24 h at 37° C., 5% CO2
2nd. Day: Induction (Treatment with Compounds, 10 Concentrations):
In order to achieve a final concentration of 30 μM as highest concentration 3.5 μl of 10 mM compound stock solution were added directly to 163 μl media. Then step e) of the dilution procedure described below, was followed.
In order to achieve the second highest to the lowest concentrations, a serial dilution with dilution steps of 1:3 was followed according to the procedure (a-e) as described here below: • a) for the second highest concentration add 10 μl of 10 mM stock solution of compound to 20 μl dimethylsulfoxide (DMSO) • b) dilute 8×1:3 (always 10 μl to 20 μl DMSO) in this DMSO dilution row (results in 9 wells with concentrations from 3333.3 μM to 0.51 μM) • c) dilute each concentration 1: 47.6 (3.5 μl compound dilution to 163 μl media) • d) add 10 μl of every concentration to 60 μl media in the cell plate resulting in final concentration of DMSO: 0.3% in every well and resulting in 10 final concentration of compounds ranging from 30 μM to 0.0015 μM. • Each compound is tested in triplicate. • Incubate 120 h (5 days) at 37° C., 5% CO2 […]
Add 30 μl CellTiter-Glo™ Reagent (prepared from CellTiter-Glo™ Buffer and CellTiter-Glo™ Substrate (lyophilized) purchased from Promega) per well, shake 15 minutes at room temperature incubate further 45 minutes at room temperature without shaking
Victor 2 scanning multiwell spectrophotometer (Wallac), Luminescence mode (0.5 sec/read, 477 nm) Determine IC50 using a non-linear curve fit (XLfit software (ID Business Solution Ltd., Guilford, Surrey, UK))
(ATP-based viability assays read luminescence as a measure of living cells.)
Usually IC50 stands for the concentration needed to halve the response being measured. `O=C(Nc1ccc(N2CCOCC2)c(F)c1)c1c(NCc2ccccn2)cc[nH]c1=O` [Example 1, 2-Oxo-4-[(pyridin-2-ylmethyl)-amino]-1,2-dihydro-pyridine-3-carboxylic acid(3-fluoro-4-morpholin-4-yl-phenyl)-amide]: inhibition was half-maximal at 7460 nM (IC50).
`CN1CCN(c2ccc(NC(=O)c3c(NCCc4ccccc4)cc[nH]c3=O)cc2)CC1` [Example 6ad, 2-Oxo-4-phenethylamino-1,2-dihydro-pyridine-3-carboxylic acid [4-(4-methyl-piperazin-1-yl)-phenyl]-amide]: the IC50 was 500 to 15000 nM.
For `CC(CNc1cc[nH]c(=O)c1C(=O)Nc1ccc(N2CCN(C)CC2)cc1)c1ccccc1` (centres unmarked) [Example 6ae, 2-Oxo-4-(2-phenyl-propylamino)-1,2-dihydro-pyridine-3-carboxylic acid [4-(4-methyl-piperazin-1-yl)-phenyl]-amide], the 50% inhibitory concentration (IC50) fell in the range of 500 to 15000 nM.
The same measure, in the same setting: the result for `CC(CNc1cc[nH]c(=O)c1C(=O)Nc1cccc(N2CCOCC2)c1)c1ccccc1` (centres unmarked) [Example 6g, 2-Oxo-4-(2-phenyl-propylamino)-1,2-dihydro-pyridine-3-carboxylic acid (3-morpholin-4-yl-phenyl)-amide] reads 500 to 15000 nM; that for `COc1ccc(NC(=O)c2c(NCCc3ccccc3)cc[nH]c2=O)cc1N1CCN(C)CC1` [Example 6i, 2-Oxo-4-phenethylamino-1,2-dihydro-pyridine-3-carboxylic acid [4-methoxy-3-(4-methyl-piperazin-1-yl)-phenyl]-amide], 500 to 15000 nM.
`COc1ccc(NC(=O)c2c(NCC(C)c3ccccc3)cc[nH]c2=O)cc1N1CCN(C)CC1` (centres unmarked) [Example 6j, 2-Oxo-4-(2-phenyl-propylamino)-1,2-dihydro-pyridine-3-carboxylic acid [4-methoxy-3-(4-methyl-piperazin-1-yl)-phenyl]-amide] displayed a concentration for half-maximal inhibition (IC50) of 500 to 15000 nM.
In turn, `COc1ccc(NC(=O)c2c(NC3CCCCC3)cc[nH]c2=O)cc1N1CCN(C)CC1` [Example 6m, 4-Cyclohexylamino-2-oxo-1,2-dihydro-pyridine-3-carboxylic acid [4-methoxy-3-(4-methyl-piperazin-1-yl)-phenyl]-amide] showed an IC50 of 500 to 15000 nM.
Same read-out and setting: the figure for `COc1ccc(NC(=O)c2c(NCCc3cccc(Cl)c3)cc[nH]c2=O)cc1N1CCN(C)CC1` [Example 6o, 4-[2-(3-Chloro-phenyl)-ethylamino]-2-oxo-1,2-dihydro-pyridine-3-carboxylic acid [4-methoxy-3-(4-methyl-piperazin-1-yl)-phenyl]-amide] is 500 to 15000 nM.
Still for that read-out and setting: the figure for `O=C(Nc1ccc(N2CCOCC2)cc1)c1c(NCc2ccccn2)cc[nH]c1=O` [Example 6r, 2-Oxo-4-[(pyridin-2-ylmethyl)-amino]-1,2-dihydro-pyridine-3-carboxylic acid (4-morpholin-4-yl-phenyl)-amide] is 500 to 15000 nM.
Regarding `CSc1cccc(NC(=O)c2c(NCc3ccccn3)cc[nH]c2=O)c1` [Example 6s, 2-Oxo-4-[(pyridin-2-ylmethyl)-amino]-1,2-dihydro-pyridine-3-carboxylic acid (3-methylsulfanyl-phenyl)-amide], the IC50 is 500 to 15000 nM.
For the compound `O=C(Nc1cccc(CN2CCCCC2)c1)c1c(NCCc2ccccc2)cc[nH]c1=O` [Example 6t, 2-Oxo-4-phenethylamino-1,2-dihydro-pyridine-3-carboxylic acid (3-piperidin-1-ylmethyl-phenyl)-amide], the 50% inhibitory concentration (IC50) lay within 500 to 15000 nM.
`CC(CNc1cc[nH]c(=O)c1C(=O)Nc1cccc(CN2CCCCC2)c1)c1ccccc1` (centres unmarked) [Example 6u, 2-Oxo-4-(2-phenyl-propylamino)-1,2-dihydro-pyridine-3-carboxylic acid (3-piperidin-1-ylmethyl-phenyl)-amide] showed an IC50 of 500 to 15000 nM.
`CC(CNc1cc[nH]c(=O)c1C(=O)Nc1cccc(CN2CCCC2)c1)c1ccccc1` (centres unmarked) [Example 6v, 2-Oxo-4-(2-phenyl-propylamino)-1,2-dihydro-pyridine-3-carboxylic acid (3-pyrrolidin-1-ylmethyl-phenyl)-amide]: the IC50 lay within 500 to 15000 nM.
For the compound `O=C(Nc1cccc(CN2CCCC2)c1)c1c(NCCc2ccccc2)cc[nH]c1=O` [Example 6w, 2-Oxo-4-phenethylamino-1,2-dihydro-pyridine-3-carboxylic acid (3-pyrrolidin-1-ylmethyl-phenyl)-amide], the IC50 was in the range of 500 to 15000 nM.

The target in another test is T1, FAK Kinase Domain (KD) (Homo sapiens, UniProt Q05397).
T1 construct: FAK Kinase Domain (KD) from baculo Sf9 was used; made in house; host or cells: baculovirus / Sf9 insect cells
T1 sequence (Q05397 422-680 limits assumed, species assumed): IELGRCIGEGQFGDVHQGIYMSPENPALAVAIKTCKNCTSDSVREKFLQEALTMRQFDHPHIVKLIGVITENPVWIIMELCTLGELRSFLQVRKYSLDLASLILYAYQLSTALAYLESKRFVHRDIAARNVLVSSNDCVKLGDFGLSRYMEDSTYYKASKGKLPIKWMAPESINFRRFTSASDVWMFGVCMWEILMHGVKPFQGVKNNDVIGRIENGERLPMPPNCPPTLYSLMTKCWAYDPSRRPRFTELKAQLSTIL
Description: IC50 determination for inhibitors of FAK (ELISA-type assay). The note with it: FAK kinase domain from baculo Sf9, biotinylated FAK-397 peptide, 10 μM ATP, 30 min, read-out: IC50 FAK inhibition. It is filed as biochemical.
For `O=C(Nc1ccc(N2CCOCC2)c(F)c1)c1c(NCc2ccccn2)cc[nH]c1=O` [Example 1, 2-Oxo-4-[(pyridin-2-ylmethyl)-amino]-1,2-dihydro-pyridine-3-carboxylic acid(3-fluoro-4-morpholin-4-yl-phenyl)-amide], the IC50 was 143 nM.
On the same count and under the same terms, the figure for `O=C(Nc1cccc(N2CCCC2)c1)c1c(NC[C@@H](O)c2ccccc2)cc[nH]c1=O` [Example 2d, 4-((S)-2-Hydroxy-2-phenyl-ethylamino)-2-oxo-1,2-dihydro-pyridine-3-carboxylic acid (3-pyrrolidin-1-yl-phenyl)-amide] is 93 nM; for `COc1ccc(NC(=O)c2c(NCCc3cccnc3)cc[nH]c2=O)cc1N1CCN(C)CC1` [Example 6aa, 2-Oxo-4-(2-pyridin-3-yl-ethylamino)-1,2-dihydro-pyridine-3-carboxylic acid [4-methoxy-3-(4-methyl-piperazin-1-yl)-phenyl]-amide] it is 216 nM.

(Values after patent US20110218199A1, “PYRIDONEAMIDE DERIVATIVES, THEIR MANUFACTURE AND USE AS PHARMACEUTICAL AGENTS” (priority 2007, published 2011).)
